Key:
Assay type in all cases: cell-based, Staphylococcus aureus
[1] = test system: MRSA; assay: Time-killing curves, cefdinir/lysozyme; conditions: 0.5 mg/ml lysozyme + 0.5 μg/ml cefdinir, after 16 hours; reduced from the level of 10^10
Experimental: 3) Time-killing curves. According to standard method [Thappeta K R V et al., ACS Infect Dis 6, 1228-1237 (2020)], over-night cultured MRSA was diluted and aliquoted into new sterile 50 ml tubes at 1:1000 ratio. Then, the bacterial suspension was cultured in LB medium containing 0.5 or 2.0 μg/ml cefdinir, 0.5 mg/ml lysozyme or their combination at 37° C. with shaking at 250 rpm. Bacterial suspension without any drugs served as control group. To measure their kinetic time-killing curves, twenty micro liters of each culture was extracted at time intervals of 0, 2, 4, 6, 9 and 16 h for measurement of the OD600 and colony-forming units. Ten micro liters of each dilution was spotted on the LB-agar plates and incubated at 37° C. for 24 hours prior to enumeration. All assays were performed in triplicate.

[2] = test system: MRSA; assay: ATP, NADH and pyruvate levels, cefdinir/lysozyme; conditions: 1 hour
Experimental: 12) ATP, NADH and pyruvate levels. According to the described method [Liu Y et al., Adv Sci 7, 1902227 (2020)], mid-log-phase MRSA with an OD600 of 0.4 to 0.6 was treated with lysozyme, cefdinir or their combination at different concentrations. Those without any treatment served as control group. After 1 hour incubation at 37° C. bacteria with similar load (according to OD600, 1 ml bacteria were collected if the OD600 was 1) were collected, washed by cold PBS for 3 times. […] Here, 20 μl of each supernatant were added each well of white 96-well plate, in which each well had been pre-reactivated by 100 μl of ATP test solution (Beyotime. Co. Ltd, China), followed by luminometer measurement. To analyze the NAD^+/NADH ratio [Xue C et al., Front Pharmacol 12, 6000296 (2021)], half of lysis supernatants were frozen at −20° C. immediately and the rest half were firstly heated at 60° C. for 30 minutes in PCR machine to decompose NAD^+ if had, Next, these heated supernatants were further centrifuged at 18,000 g at 4° C. for 20 minutes to collect their supernatants. […] After 30 minutes incubation in the prevention of light, orange formazan was observed and then the absorbance at 450 nm was recorded. […] By recording the absorbance at 520 nm, the pyruvate level in each sample was figured out according to the standard formula. […]

[3] = test system: MRSA; assay: Time-killing curves, tedizolid phosphate/lysozyme; conditions: tedizolid phosphate + 0.5 mg/ml lysozyme, after 22 hours; dropping from the level of 10^12
Experimental: 3) Time-killing curves. According to standard method [Sun. H et al., Nat. Commun. 11, 5263 (2020); Thappeta, K. R. V., Vikke. Y. S., Yong. A. M. H., Chan-Park. M. B. Kline, K. A. Combined efficacy of an antimicrobial cationic peptide polymer with conventional antibiotics to combat multidrug-resistant pathogens. ACS Infect. Dis. 6, 1229-1237 (2020)], over-night cultured MRSA was diluted and aliquoted into new sterile 50 ml tubes at 1:1000 ratio. Then, the bacterial suspension was co-cultured with 0.25 or 0.5 μg/ml tedizolid phosphate, 0.5 mg/ml lysozyme or their combination at 37° C. with shaking at 50 rpm. Similar bacterial suspension without any additions served as control group. To measure their real bacterial loads to draw their kinetic time-killing curves, 20 μl of each culture was extracted at time intervals of 0, 1, 3, 6, 9, 12 and 22 hours, and then 10 μl of each sample (10-fold serial dilution) was applied onto LB-agar plate and incubated at 37° C. for 24 hours. All assays were performed in triplicate.

Compound | bacterial load [1] | increasing ATP level ([2]; cefdinir (0.5 μg/ml) + lysozyme (0.5 mg/ml)) [fold] | increase in the ratio of NAD+/NADH ([2]; cefdinir treatment) [fold] | bacterial load per ml culture [3]
C=CC1=C(C(=O)O)N2C(=O)[C@@H](NC(=O)/C(=N\O)c3csc(N)n3)[C@H]2SC1 [cefdinir, Cefdinir] | 10^7 CFU/ml | 1.5 | 1.3 | 
Cn1nnc(-c2ccc(-c3ccc(N4C[C@H](COP(=O)(O)O)OC4=O)cc3F)cn2)n1 [tedizolid phosphate, Tedizolid Phosphate] |  |  |  | 10^6 colony forming units (CFUs)

From patent US20250144187A1, “COMBINATION OF HYDROLASES AND ANTI-MICROORGANISM DRUGS AND USES THEREOF” (CENTRE FOR EYE AND VISION RESEARCH LIMITED, priority 2023, published 2025)
